Square brackets hold non-standard residues; d marks the D form. Ends that are not written are not given here. Lys(Me3) = C[N+](C)(C)CCCC[C@H](N)C(=O)O
Tests used:
Assay type in all cases: biochemical, human
[1] = system: KDM4A (KDM4A1–359); assay: MALDI-TOF MS demethylation activity assay, KDM4A; design: key: 🟢: Indicates that clear demethylation activity was observed; 🟡: Indicates that low level demethylation activity was observed (<10% conversion after 1 h); 🔴: Indicates no activity under the stated conditions (1 μM KDM, 10 μM peptide); 🟡*: *Indicates demethylation activity was only observed with 5 μM KDM; settings: peptide as substrate, 1 μM KDM, 10 μM peptide, 50 mM HEPES pH 7.5, Fe(II) 10 μM, ascorbate 100 μM, 2OG 200 μM, 1 h at 37 °C
Experimental: (§1) Recombinant proteins (1 μM) were incubated with peptides (10 μM, sequences are given in Table S1) in 50 mM HEPES, pH 7.5 with addition of Fe(II) ammonium sulfate (10 μM), sodium ascorbate (100 μM) and 2‐oxoglutaric acid (200 μM). Reactions with KDM3A and KDM7A also contained 1 mM tris(2‐carboxyethyl)phosphine hydrochloride. No enzyme reactions were included as negative controls. Reactions were incubated for 1 h at 37 °C before being quenched with 1 : 1 (v/v) methanol. Analysis was carried out by MALDI‐TOF MS (Bruker, Billerica, MA, USA), with demethylation observed as mass shifts of 14 Da.
(§2) Given the activity observed with KDM4E and KDM7A, we decided to investigate the intra‐subfamily conservation of this demethylation activity. The demethylation activity of the other subfamily members (KDM4A‐D and KDM7B) was therefore screened. […] Note that as with H3K9, demethylation of the monomethylated H1.4K26 peptide was only observed with KDM4E, under the stated conditions 24.

[2] = system: KDM4C (KDM4C1–359); assay: MALDI-TOF MS demethylation activity assay, KDM4C; design: key: 🟢: Indicates that clear demethylation activity was observed; 🟡: Indicates that low level demethylation activity was observed (<10% conversion after 1 h); 🔴: Indicates no activity under the stated conditions (1 μM KDM, 10 μM peptide); 🟡*: *Indicates demethylation activity was only observed with 5 μM KDM; settings: peptide as substrate, 1 μM KDM, 10 μM peptide, 50 mM HEPES pH 7.5, Fe(II) 10 μM, ascorbate 100 μM, 2OG 200 μM, 1 h at 37 °C
Experimental: as §1, §2

[3] = system: KDM7B (PHF8; KDM7B1–447); assay: MALDI-TOF MS demethylation activity assay, KDM7B (PHF8); design: key to demethylation activity on methylated H1.4 peptide: 🟢: Indicates that clear demethylation activity was observed; 🟡: Indicates that low level demethylation activity was observed (<10% conversion after 1 h); 🔴: Indicates no activity under the stated conditions (1 μM KDM, 10 μM peptide); 🟡*: *Indicates demethylation activity was only observed with 5 μM KDM; settings: peptide as substrate; MALDI-TOF MS; 1 μM KDM (* = only with 5 μM KDM), 10 μM peptide, 50 mM HEPES pH 7.5, Fe(II) 10 μM, ascorbate 100 μM, 2OG 200 μM, 1 h at 37 °C
Experimental: as §1, §2
N ^ε‐Trimethylated H3K4 binds to the plant homeobox domain of KDM7B, targeting the N ^ε‐dimethyllysine at H3K9 to the catalytic domain, and thus promoting demethylation 29, 44. To test whether similar targeting may occur with H1.4, promoting activity at H1.4K26, an H1.4 peptide was synthesised containing di‐N ^ε‐methyllysine at K26 and tri‐N ^ε‐methyllysine at K21 (i.e. at the equivalent position in the sequence to K4 in the H3 peptide, Fig. 1B, Table S1). Monomethylation at H1.4K21 has previously been observed by proteomic mass spectrometry 45. With the aim of enhancing activity, the enzyme concentration was increased from 1 μM to 5 μM, and time course analyses were conducted with both KDM7A and KDM7B, both with the new peptide (H1.4(18–32)K21me3K26me2) and the H1.4 peptides methylated only at K26 (Fig. 2B). […] Thus, it appears unlikely that N ^ε‐trimethylation at H1.4K21 promotes demethylation at H1.4K26 by KDM7B.

[4] = system: KDM4A; assay: 1H NMR activity assay (time course); settings: KDM4A 10 μM, peptide 400 μM, 2OG 400 μM, Fe(II) 100 μM, ascorbate 1 mM, 50 mM ammonium formate pH 7.5, 500 mM NaCl, 700 MHz
Experimental: The NMR analyses employed a Bruker Avance III 700 MHz spectrometer with an inverse TCI cryoprobe optimised for ^1H observation and were carried out as previously described 6. Samples (KDM4A (10 μM), 2OG (400 μM), H1.4(18–32)K26me3 peptide (400 μM), Fe(II) ammonium sulfate (100 μM) and ascorbate (1 mM) in 50 mM ammonium formate, pH 7.5, 500 mM NaCl in 10% v/v D2O) were prepared in a microcentrifuge tube (total volume = 75 μL), before being transferred to an NMR tube. The samples were then analysed over time using automated routines; each time‐point corresponded to one experiment accumulating 16 transients (89 s total acquisition time per experiment). The solvent resonance was depleted by excitation sculpting using a 180° sinc pulse (duration = 2 ms) 30.
Studies then focused on determining the proficiency of H1.4K26 demethylation by the KDM4 enzymes.

[5] = system: KDM5C (KDM5C1–765); assay: MALDI-TOF MS demethylation activity assay, KDM5C; design: key: 🟢: Indicates that clear demethylation activity was observed; 🟡: Indicates that low level demethylation activity was observed (<10% conversion after 1 h); 🔴: Indicates no activity under the stated conditions (1 μM KDM, 10 μM peptide); 🟡*: *Indicates demethylation activity was only observed with 5 μM KDM; settings: peptide as substrate, 1 μM KDM, 10 μM peptide, 50 mM HEPES pH 7.5, Fe(II) 10 μM, ascorbate 100 μM, 2OG 200 μM, 1 h at 37 °C
Experimental: as §1
The propensity of human JmjC KDMs to catalyse demethylation at H1.4K26 was investigated using recombinant forms of the catalytic domains of representatives of each human JmjC KDM subfamily (KDM2‐7) and fragment peptides (Table S1) 37. Three peptides with identical sequences, corresponding to residues 18–32 of histone H1.4 (H2N‐[…]‐CONH2), but containing either a N ^ε‐tri‐, di‐ or monomethyllysine at K26 were synthesised (Fig. 1B and Table S1). Activity assays monitoring JmjC KDM‐catalysed demethylation of the peptides were then carried out; samples were prepared containing each peptide, 2‐oxoglutarate (2OG), ferrous iron, ascorbate and individual representatives from each JmjC KDM subfamily (KDM2A 38, KDM3A 21, KDM4E 22, KDM5C 39, 40, KDM6B 41, KDM7A 42).

## TPVKKKAR[Lys(Me3)]SAGAAK [H1.4(18–32)K26me3, peptide of residues 18–32 of histone H1.4 with N ε-trimethyllysine at K26]
[1]
  demethylation activity on methylated H1.4 peptide: 🟢
[2]
  demethylation activity on methylated H1.4 peptide: 🟢
[3]
  demethylation activity on methylated H1.4 peptide: 🔴
[4]
  demethylation of the Kme3 residue by 1H NMR (result in words): time‐dependent demethylation
[5]
  demethylation activity on methylated H1.4 peptide: 🔴
